In data set [1] the test system is uptake of norepinephrine by synaptosomes isolated from the hypothalamus. Description: In vitro uptake of [3H]norepinephrine by rat hypothalamus synaptosomes (method of Wong and Bymaster). In kind it is biochemical, male Sprague-Dawley rats. The settings on record: for Uptake: [3H]norepinephrine uptake. How it is done:
(§1) Monoamine uptake inhibition was measured by the in vitro method of Wong and Bymaster, cited above. In this method, male Sprague-Dawley rats weighing 110-150 g. were killed by decapitation, and the whole brains were removed and dissected. Crude preparations of synaptosomes were prepared from 10% homogenates of specific areas of the brain in 0.32M sucrose and lOmM glucose by differential centrifugation, according to the method of Gray and Whittaker, J. Anat. 96, 79 (1962).
(§2) Uptake of [^3H]monoamines by synaptosomes was determined as follows. A portion of a synaptosome preparation equivalent to 1 mg. of protein was incubated at 37°. for 5 minutes in 1 or 3 ml. of Krebs bicarbonate medium containing an additional 10mM of glucose, 0.1mM iproniazid, ImM ascorbic acid, 0.17mM ethylenediaminetetraacetic acid and [3H]monoamine at a specified concentration. The incubation mixtures were immediately diluted with 2 ml. of ice-chilled Krebs bicarbonate buffer containing 1mM non-radioactive monoamine. Synaptosomes were harvested by centrifugation, and rinsed with 5 ml. of cold buffer into counting vials containing 10 ml. of scintillation fluid. Radioactivity was measured with a liquid scintillation spectrometer, and the amount of [^3H]- monoamine accumulated by the synaptosomes at 4° represented the background count and was subtracted from the results obtained on all samples.

Data set [2] concerns uptake of [3H]-norepinephrine, hypothalamus. Description: Inhibition of norepinephrine uptake in hypothalamus homogenate after dosing live rats. In kind it is in vivo, male Sprague-Dawley rats. The settings on record: for inhibition at 10 mg/kg / ED50: Rattus norvegicus; for ED50: ip, read-out: ED50 value. The method, then:
The test animals were male Sprague-Dawley rats weighing 110-150 g., which were treated in groups of 5 with the test compound at the doses and times specified, and were killed by decapitation. The hypothalamus was removed from each brain, and homogenized in a medium as described in the in vitro test above. Aliquots of the homogenate containing 1 mg. of protein were used; the incubation times, medium and temperature were as described in the test above.
The data were expressed another way by plotting the blood level of the compound against the rate of [^3H]norepinephrine uptake.

The test system of data set [3] is uptake of norepinephrine by synaptosomes of the hypothalamus after 6-hydroxydopamine. The experiment in a line: Protection against 6-hydroxydopamine-induced loss of norepinephrine uptake. In kind it is in vivo, male Sprague-Dawley rat. As to conditions: Rattus norvegicus, ip; for ED50: antagonism of 6-hydroxydopamine, intraperitoneally. The source says:
The neurotoxic agent 6-hydroxydopamine has the property of destroying norepinephrinergic terminals of the central and peripheral nervous systems.

For data set [4], the target named is strips of fresh guinea pig trachea, acetylcholine as the agonist. Description: Anticholinergic activity in guinea pig tracheal strips, acetylcholine as agonist (Schild plot). The settings on record: for negative logarithm of the dissociation constant: acetylcholine as agonist, guinea pig trachea. In kind it is cell-based. How it is done: The test was carried out on 2mm. x 30mm. strips of fresh guinea pig trachea. The strips were suspended in 10 ml. organ baths containing physiological salt solution at 37.5°, and aerated with a mixture of 5% carbon dioxide and 95% oxygen. The tracheal strips were attached to isometric transducers connected to an automatic recorder, and were allowed to equilibrate under a tension of 2 g. for at least 2 hours before addition of drug. Dose-response curves were obtained by adding increasing concentrations of drug to the bath, in approximately 3-fold increments. […] Consecutive dose-response curves on a given tissue were always separated by 1 hour of washing with fresh physiological salt solution to assure maximum washout of drug.
Dissociation constants were determined using acetylcholine as the agonist. In this method, the ratio of concentrations of acetylcholine giving equal responses in the presence and in the absence of the compound of this invention was determined at various concentrations of the compound. […] The method of calculation is clearly discussed by Arunlakshana and Schild, Some Quantitative Uses of Drug Antagonists, Brit. J. Pharmacol. 14 48-58 (1959).

Data set [5] deals with reduction in body temperature caused by apomorphine. The experiment in a line: Apomorphine hypothermia antagonism test. In kind it is in vivo, Mice. As to conditions: for dose giving 50% antagonism of the hypothermia: compound intraperitoneally 30 minutes before apomorphine, temperature 30 minutes after.
Data set [6] deals with mice. As to conditions: mouse, in vivo.
Data set [7] has as its system mice. Description: Acute toxicity in mice. As to conditions: injected in mice.
Data set [8] relates to dopamine uptake, synaptosomes isolated from the corpus striatum. The experiment in a line: In vitro uptake of [3H]dopamine by corpus striatum synaptosomes. In kind it is biochemical, male Sprague-Dawley rats. How it is done:
as §1
as §2, with “The incubation mixtures were immediately diluted with 2 ml. of ice-chilled Krebs bicarbonate buffer containing 1mM non-radioactive monoamine. Synaptosomes were harvested by centrifugation, and rinsed with 5 ml. of cold buffer into counting vials containing 10 ml. of scintillation fluid.” left out
(§3) The effect of the compound of this invention on the uptake of [^3H]serotonin and [^3H]dopamine was also determined, by the same test method, using synaptosomes isolated from the corpus striatum for the determination of dopamine uptake and synaptosomes of cerebral cortex for serotonin uptake.

The test system of data set [9] is serotonin uptake, synaptosomes of cerebral cortex. Description: In vitro uptake of [3H]serotonin by cerebral cortex synaptosomes. In kind it is biochemical, male Sprague-Dawley rats. How it is done: as §1
as §2, with “The incubation mixtures were immediately diluted with 2 ml. of ice-chilled Krebs bicarbonate buffer containing 1mM non-radioactive monoamine. Synaptosomes were harvested by centrifugation, and rinsed with 5 ml. of cold buffer into counting vials containing 10 ml. of scintillation fluid.” left out
as §3

The subject of data set [10] is canine cardiac conducting tissue, sometimes called Purkinje fibers. The settings on record: dog. An excerpt: Another test applied to the compound was one designed to detect electrophysiological effects in canine cardiac conducting tissue, sometimes called Purkinje fibers.
Data set [11] in a line: Oral absorption (statement only). The settings on record: in vivo.
Where [12] appears, read: 4 h, four hours after administration, read-out: inhibition of norepinephrine uptake.
Setting [13] is: inhibition of norepinephrine uptake, intraperitoneally, 1 hour before sacrifice.
Where [14] appears, read: duration experiment up to 4 hours, read-out: maximum inhibition of norepinephrine uptake.

These results are taken from EP0052492A1, “3-Aryloxy-3-phenylpropylamines” (ELI LILLY AND COMPANY, priority 1980, dated 1982).

Read-outs that look alike come from different tables or passages of the source.

For orientation: inhibition means how much of the control response was suppressed. For orientation: ED50 means the dose that gives a 50% effect, or the effect in half of the subjects. On to `CNCC[C@H](Oc1ccccc1C)c1ccccc1` [(+)-enantiomer, reference compound], for which the IC50 in data set [1] (norepinephrine uptake, hypothalamus synaptosomes, read-out: IC50 value, concentration which inhibited half of the uptake activity) was 40 nM. Besides, the inhibition at 10 mg/kg in data set [2] (setting [12]) amounted to 35%; in data set [2] (setting [14]) it was 70%; in data set [2] (second hour after administration, read-out: inhibition of norepinephrine uptake) it was 50%. The ED50 in [2] (setting [13]) is 6.3 mg/kg; in data set [3] it was about 22 mg/kg. Moreover, the “negative logarithm of the dissociation constant” value in data set [4] came to 6.04. For the same compound, the “dose giving 50% antagonism of the hypothermia” value in [5] amounted to 2.26 mg/kg. The compound also yielded an antagonism in data set [5] (compound orally at 3 mg./kg., apomorphine intraperitoneally) of 50%. The “time after administration at which mice were still stimulated” value in the data set with mice [6] is at least 5 h. The “doses at which no deaths occurred” value in the data set on mice [7] was “below 90 mg./kg”.

Take `CNCCC(Oc1ccccc1C)c1ccccc1.Cl` (single isomer, unassigned; (-)) [compound of this invention, (-)-N-methyl-3-(2-methylphenoxy)-3-phenylpropylamine, hydrochloride]: the Uptake in [1] (concentration 1 x 10^-9M, control without drug 3.9 x 10^-12 moles/mg. protein) is on record as 3.1 x 10^-12moles/mg. protein; in data set [1] (concentration 2 x 10^-9M, control 3.9) it was 2.2 x 10^-12moles/mg. protein; in [1] (concentration 3 x 10^-9M, control 3.9), 3.1 x 10^-12moles/mg. protein; in [1] (concentration 10 x 10^-9M, control 3.9), 1.4 x 10^-12moles/mg. protein; in [1] (concentration 30 x 10^-9M, control 3.9) it was 1.0 x 10^-12moles/mg. protein; in data set [1] (concentration 50 x 10^-9M, control 3.9) it was 0.9 x 10^-12moles/mg. protein. In addition, the Uptake in data set [1] (concentration 100 x 10^-9M, control 3.9) is on record as 0.8 x 10^-12moles/mg. protein. Further, the “potency in inhibiting the uptake of norepinephrine relative to the (+)-enantiomer” value in data set [1] (compared with the corresponding (+)-enantiomer) is recorded as “about 10 times”. Moreover, the IC50 stood at 4000 nM in data set [8] and 1000 nM in [9]. Further, the “uptake of [3H]-norepinephrine reduced from the control value” amounted to 35% in [2] (1 mg./kg. intraperitoneally, 1 hour before sacrifice); 58% in [2] (3 mg./kg. intraperitoneally, 1 hour before sacrifice); 68% in data set [2] (10 mg./kg. intraperitoneally, 1 hour before sacrifice). Besides, the figures for the inhibition at 10 mg/kg in [2] (setting [12]) and in data set [2] (setting [14]) were about 65% and over 80%, respectively. The ED50 turned out to be 2.1 mg/kg in data set [2] (setting [13]) and 4 mg/kg in data set [3]. Also, the “ED50 concentration in blood plasma” value in [2] (blood level plotted against rate of [3H]norepinephrine uptake) was “about 14 x 10^-9 g./ml”. For the same compound, the inhibition at 1 mg/kg in data set [3] (1 mg./kg. intraperitoneally before 6-hydroxydopamine, read-out: reduced the inhibition of uptake (by 6-hydroxydopamine)) was determined as 15%. Besides, the inhibition at 3 mg/kg in data set [3] (3 mg./kg. intraperitoneally before 6-hydroxydopamine, read-out: reduced the inhibition of uptake (by 6-hydroxydopamine)) turned out to be 43%. For the same compound, the inhibition at 6 mg/kg in [3] (6 mg./kg. intraperitoneally before 6-hydroxydopamine, read-out: reduced the inhibition of uptake (by 6-hydroxydopamine)) stood at 70%. For the same compound, the “anticholinergic activity relative to the (+)-enantiomer” value in [4] (fraction of the activity of the (+)-enantiomer) is listed as 1/6. For the same compound, the “anticholinergic activity relative to the racemate” value in [4] (fraction of the activity of the racemate) was 1/3. In [5], the “dose giving 50% antagonism of the hypothermia” value was found to be 0.16 mg/kg. Further, the highest antagonism in data set [5] (compound orally at 1 mg./kg., apomorphine intraperitoneally) stood at 35%. Besides, the “concentration that suppressed the rate of rise and duration of the action potential” value in data set [10] amounted to 8 µM. For the same compound, the oral absorption entry in data set [11] was “orally absorbed”. The “doses at which no deaths occurred” value in the data set on mice [7] was “below 90 mg./kg”.

As for `CNCCC(Oc1ccccc1C)c1ccccc1.Cl` (racemic) [racemate, N-methyl-3-(2-methylphenoxy)-3-phenylpropylamine, hydrochloride, reference compound], in data set [2], the ED50 was found to be 3.4 mg/kg. In addition, in data set [4], the “negative logarithm of the dissociation constant” value was determined as 5.72.
